Reference: patent US20250281397A1, “FORMULATIONS OF A PLASMA KALLIKREIN INHIBITOR” (KALVISTA PHARMACEUTICALS LIMITED, priority 2022, published 2025)
Each block holds one molecule with its values, some of them ahead of it.

Key:
[1] = reported by Chilcote and Sinha, ARVO 2012; cited from earlier work
[2] = literature / authorised label; cited from earlier work
[3] = Phase 1 trial: single-dose 3-way crossover pharmacokinetic study, ODT vs film-coated tablets; type: in vivo, human; details: single doses of 500 mg or 600 mg in ODT or FCT, healthy adult participants
Protocol: This study was an open label, randomized, single-dose, 3-way crossover pharmacokinetic study.
Thirty-six (36) healthy, adult, male and female subjects were enrolled.
The film coated tablets were those used in the phase 2 study described herein (NCT04208412).
There was a washout period of at least 4 days between the dose in Period 1 and Period 2 and the dose in Period 2 and Period 3.
An analysis of variance (ANOVA) was performed on the natural log (ln) transformed AUC0-t, AUC0-inf, AUC% extrap and Cmax, using the appropriate statistical procedure.

[4] = swallowable tablet, NCT04208412; cited from earlier work
[5] = BCS classification (ICH M9); type: physicochemical; details: ICH guideline M9
Source text: BCS class IV drugs are considered to be poorly soluble and poorly permeable meaning that they are likely to have poor oral bioavailability and/or the oral absorption may be so low that they cannot be given by the oral route. Due to their numerous unfavourable characteristics, BCS class IV drugs are particularly challenging to formulate as oral dosage forms and in particular as ODTs. Indeed, ODTs of BCS class IV drugs are not generally known in the art.

[6] = Plasma concentration after oral administration; type: in vivo; details: following administration of a dosage amount of at least about 60 mg

Molecule: N=C(N)c1ccc(CNC(=O)c2cnn(Cc3ccccc3)c2)cc1 [ASP-440]
oral availability [1]: poor oral availability

Molecule: N#Cc1cccc([C@@H](NCC2CC2)c2ccc(F)c(NC(=O)c3cc(C(F)(F)F)nn3-c3cccc(CN)c3)c2)c1 [Berotralstat, reference compound]
reported adverse reactions [2]: higher doses were associated with more gastrointestinal adverse effects

BCS classification [5]: BCS class IV
concentration of KVD900 in plasma [6]: at least 500 ng/ml
Molecule: COCc1nn(Cc2ccc(Cn3ccccc3=O)cc2)cc1C(=O)NCc1nccc(OC)c1F [KVD900, N-[(3-fluoro-4-methoxypyridin-2-yl)methyl]-3-(methoxymethyl)-1-({4-[(2-oxopyridin-1-yl)methyl]phenyl}methyl) pyrazole-4-carboxamide]
safety and tolerability [3]: well tolerated
phase 2 efficacy and safety endpoints [4]: met all of its phase 2 efficacy and safety endpoints

Molecule: Ecallantide
reported adverse reactions [2]: risks of anaphylactic reactions

B1: lanadelumab: recombinant fully human IgG1 kappa light chain monoclonal antibody, plasma kallikrein inhibitor (antibody, chains of the INN, looked up, V domains shown)
VH: EVQLLESGGGLVQPGGSLRLSCAASGFTFSHYIMMWVRQAPGKGLEWVSGIYSSGGITVYADSVKGRFTISRDNSKNTLYLQMNSLRAEDTAVYYCAYRRIGVPRRDEFDIWGQGTMVTVSS
VL: DIQMTQSPSTLSASVGDRVTITCRASQSISSWLAWYQQKPGKAPKLLIYKASTLESGVPSRFSGSGSGTEFTLTISSLQPDDFATYYCQQYNTYWTFGQGTKVEIK
reported adverse reactions [2]: hypersensitivity, injection site pain, injection site erythema, and injection site bruising
